Reference: patent US20240002326A1, “COMPOUNDS AND USE THEREOF IN METHODS OF TREATMENT” (The University of Queensland, priority 2016, published 2024)

Columns and labels:
SOX18 = SOX18 (Mus musculus (Mouse), UniProt P43680); test: Cell-based luciferase SOX18-dependent transactivation (Vcam1 promoter) in COS-7; details: COS7, 24 h
Description: Monkey kidney fibroblast-like cells (COS-7) were cultured at 37° C., 5% CO2 in DMEM (Life technologies, 11995) with FBS, sodium pyruvate, L-glutamine, penicillin, streptomycin, non-essential amino acids and HEPES. Cells were grown in 96-well plates to 80% confluency, and transfected with mouse plasmids pGL2 Vcam 1 promoter construct (VC1889) and pSG5 Sox18, using X-tremeGENE 9 DNA transfection reagent (Roche, 06365787001) (Hosking et al., 2004, Duong et al., 2014). After 4-6 h transfection, cells were incubated with compounds in 0.5% FBS medium for another 24 h, before lysis and luciferase assay (Perkin Elmer, 6016711).

SOX18[109] HMG fragment = SOX18[109] HMG fragment (Mus musculus (Mouse), UniProt P43680); test: FP DNA-binding competition assay, SOX18[109] HMG fragment; details: for remaining activity at 50 µM: read-out: FP bound fraction (%) 50 μM; for remaining activity at 200 µM: read-out: FP bound fraction (%) 200 μM
Procedure, shortened: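 Fluorescence polarization competition using mouse SOX18[109] fragment (residues 69-177, HMG box plus flanks) at 60 nM with 5 nM 5′-FAM 40 bp Prox1 DNA in 10 mM Tris pH 8.0, 100 mM NaCl, 2-3.33% DMSO. Agitated 5 min RT, 10 min 37° C, 30 min RT, then read (ex 485/em 525 nm), triplicates.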

[1] = Cytotoxicity assay (Alamar blue), HepG2; assay type: cell-based; details: human, HepG2 cells; HepG2, 24 h
[2] = Cytotoxicity assay (Alamar blue), HEK293; assay type: cell-based; details: human, HEK293 cells; HEK293, 24 h
Procedure, shortened: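 COS-7 cells in DMEM with 10% FBS; HepG2 and HEK293 in DMEM with 1% FBS. After 24 h plating, serial compound dilutions (0.5% DMSO final) added for 24 h at 37° C. Viability from Alamar blue 5 μM, fluorescence 560/590 nm read after 2 h.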

SOX18[109] HMG fragment, sequence (P43680 69-177): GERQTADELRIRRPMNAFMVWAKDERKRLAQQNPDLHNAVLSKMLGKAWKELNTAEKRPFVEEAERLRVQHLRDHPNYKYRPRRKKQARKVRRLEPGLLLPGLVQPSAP
SOX18, sequence (P43680 whole entry): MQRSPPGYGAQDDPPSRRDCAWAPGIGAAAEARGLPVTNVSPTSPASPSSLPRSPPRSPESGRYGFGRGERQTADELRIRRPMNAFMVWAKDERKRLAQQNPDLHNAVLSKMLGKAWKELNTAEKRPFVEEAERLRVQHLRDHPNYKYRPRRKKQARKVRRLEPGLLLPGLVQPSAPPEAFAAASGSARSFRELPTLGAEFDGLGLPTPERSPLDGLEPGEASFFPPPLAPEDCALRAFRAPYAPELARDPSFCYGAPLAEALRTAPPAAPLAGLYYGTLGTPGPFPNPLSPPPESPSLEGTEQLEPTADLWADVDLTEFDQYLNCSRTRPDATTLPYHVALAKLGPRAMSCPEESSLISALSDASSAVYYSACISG

Row | Compound | CC50 at 24 h [1] [µM] | remaining activity at 50 µM (SOX18[109] HMG fragment; 50 μM, SOX18/DNA binding) [%] | remaining activity at 200 µM (SOX18[109] HMG fragment; 200 μM, SOX18/DNA binding) [%] | CC50 at 24 h [2] [µM] | other results
1 | O=C(O)c1ccccc1Nc1cccc(C(F)(F)F)c1 [Flufenamic acid, reference compound] |  |  |  |  | In vitro efficacy in cell IC50 ± SD COS7 (Luc) (SOX18): cytotoxicity was reached before any concentration-dependent SOX18 inhibition could be observed
2 | O=C(O)c1c(O)cccc1COCCc1ccccc1 [Sm5] |  |  |  |  | IC50 (SOX18; read-out: In vitro efficacy in cell IC50 ± SD COS7 (Luc)): 21 ± 14 µM
3 | CCN(CC)C(=O)c1c(O)cc(O)cc1CCc1ccc2ccccc2c1 [Sm26, N,N,diethyl-2,4-hydroxy-6-(2-(naphthalen-2-yl)ethyl)benzamide] |  |  |  |  | FP bound fraction (%) 50 μM (SOX18[109] HMG fragment; 50 μM, SOX18/DNA binding): 98.5 ± 5.9%; FP bound fraction (%) 200 μM (SOX18[109] HMG fragment; 200 μM, SOX18/DNA binding): 128.3 ± 17.2%
4 | Oc1cc(CCc2ccccc2)cc(O)c1O [Sm40, 5-phenethylbenzene-1,2,3-triol] | > 100 | 101 ± 12.1 | 92.7 ± 14.7 | > 100 | SOX18-DNA binding inhibition (FP, words) (SOX18[109] HMG fragment; SAR library, SOX18[109]): not active
5 | COc1cc(C)cc(/C=C/c2ccc3ccccc3c2)c1C(=O)O [Sm34, (E)-2-methoxy-4-methyl-6-(2-(naphthalen-2-yl)vinyl)benzoic acid] | > 100 | 94.2 ± 1.9 | 101 ± 1.5 | > 100 | 
